Tests used:
Assay in all cases: relative viability (nuclei count vs DMSO), 5 days (fraction); higher = more cells survive
ABC-1 = tested on: ABC-1
Summary of the method: (§1)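 Values are medians from duplicate plates. Each reflects relative viability, defined as the nuclei count of treated wells over that of vehicle wells. Lung cancer cell lines in 1536-well plates were pin-tool dosed one day after seeding with one drug alone or with a fixed anchor-drug dose plus five library-drug doses (not always all listed) in √10 steps, then fixed, stained and imaged at 4× after 5 days.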

COR-L23 = tested on: COR-L23
Summary of the method: as §1

EPLC-272H = tested on: EPLC-272H
Summary of the method: as §1

HARA = tested on: HARA
Summary of the method: as §1

HCC-15 = tested on: HCC-15
Summary of the method: as §1

HCC-78 = tested on: HCC-78
Summary of the method: as §1

LC-2-ad = tested on: LC-2-ad
Summary of the method: as §1

LU99A = tested on: LU99A
Summary of the method: as §1

NCI-H1355 = tested on: NCI-H1355
Summary of the method: as §1

NCI-H1651 = tested on: NCI-H1651
Summary of the method: as §1

NCI-H1915 = tested on: NCI-H1915
Summary of the method: as §1

NCI-H1993 = tested on: NCI-H1993
Summary of the method: as §1

NCI-H2023 = tested on: NCI-H2023
Summary of the method: as §1

NCI-H2085 = tested on: NCI-H2085
Summary of the method: as §1

NCI-H2126 = tested on: NCI-H2126
Summary of the method: as §1

NCI-H2342 = tested on: NCI-H2342
Summary of the method: as §1

NCI-H2347 = tested on: NCI-H2347
Summary of the method: as §1

NCI-H358 = tested on: NCI-H358
Summary of the method: as §1

NCI-H650 = tested on: NCI-H650
Summary of the method: as §1

NCI-H838 = tested on: NCI-H838
Summary of the method: as §1

PC-14 = tested on: PC-14
Summary of the method: as §1

SW 1573 = tested on: SW 1573
Summary of the method: as §1

UMC-11 = tested on: UMC-11
Summary of the method: as §1

Molecule `NC(=O)Nc1cc(-c2cccc(F)c2)sc1C(=O)N[C@H]1CCCNC1` [AZD7762] + N=C(N)NC(=N)NCCc1ccccc1 [Phenformin] (partner 250 µM) has a relative viability (ABC-1; first compound 0.01 µM) of 0.273, a relative viability (ABC-1; first compound 0.03162 µM) of 0.249 and a relative viability (ABC-1; first compound 0.1 µM) of 0.268. It also gave a relative viability (ABC-1; first compound 0.3162 µM) of 0.203, a relative viability (ABC-1; first compound 1 µM) of 0.19 and a relative viability (COR-L23; first compound 0.01 µM) of 0.458. It also gave a relative viability (COR-L23; first compound 0.03162 µM) of 0.446, a relative viability (COR-L23; first compound 0.1 µM) of 0.515 and a relative viability (COR-L23; first compound 0.3162 µM) of 0.349. For the same molecule, the relative viability (COR-L23; first compound 1 µM) was 0.131, the relative viability (EPLC-272H; first compound 0.01 µM) was 0.325 and the relative viability (EPLC-272H; first compound 0.03162 µM) was 0.359. For the same molecule, the relative viability (EPLC-272H; first compound 0.1 µM) was 0.278, the relative viability (EPLC-272H; first compound 0.3162 µM) was 0.261 and the relative viability (EPLC-272H; first compound 1 µM) was 0.164. The relative viability (HARA; first compound 0.01 µM) was 0.569, the relative viability (HARA; first compound 0.03162 µM) was 0.509 and the relative viability (HARA; first compound 0.1 µM) was 0.501. It also gave a relative viability (HARA; first compound 0.3162 µM) of 0.282, a relative viability (HARA; first compound 1 µM) of 0.138 and a relative viability (HCC-15; first compound 0.01 µM) of 0.483. It also gave a relative viability (HCC-15; first compound 0.03162 µM) of 0.475, a relative viability (HCC-15; first compound 0.1 µM) of 0.432 and a relative viability (HCC-15; first compound 0.3162 µM) of 0.473. For the same molecule, the relative viability (HCC-15; first compound 1 µM) was 0.445, the relative viability (HCC-78; first compound 0.01 µM) was 0.737 and the relative viability (HCC-78; first compound 0.03162 µM) was 1.12. It also gave a relative viability (HCC-78; first compound 0.1 µM) of 0.766, a relative viability (HCC-78; first compound 0.3162 µM) of 0.718 and a relative viability (HCC-78; first compound 1 µM) of 0.604. For the same molecule, the relative viability (LC-2-ad; first compound 0.01 µM) was 0.645, the relative viability (LC-2-ad; first compound 0.03162 µM) was 0.595 and the relative viability (LC-2-ad; first compound 0.1 µM) was 0.555. For the same molecule, the relative viability (LC-2-ad; first compound 0.3162 µM) was 0.592, the relative viability (LC-2-ad; first compound 1 µM) was 0.342 and the relative viability (LU99A; first compound 0.01 µM) was 0.777. It also gave a relative viability (LU99A; first compound 0.03162 µM) of 0.934, a relative viability (LU99A; first compound 0.1 µM) of 0.868 and a relative viability (LU99A; first compound 0.3162 µM) of 0.795. The relative viability (LU99A; first compound 1 µM) was 0.512, the relative viability (NCI-H1355; first compound 0.01 µM) was 0.403 and the relative viability (NCI-H1355; first compound 0.03162 µM) was 0.501. It also gave a relative viability (NCI-H1355; first compound 0.1 µM) of 0.456, a relative viability (NCI-H1355; first compound 0.3162 µM) of 0.49 and a relative viability (NCI-H1355; first compound 1 µM) of 0.444. It also gave a relative viability (NCI-H1651; first compound 0.01 µM) of 0.36, a relative viability (NCI-H1651; first compound 0.03162 µM) of 0.434 and a relative viability (NCI-H1651; first compound 0.1 µM) of 0.319. The relative viability (NCI-H1651; first compound 0.3162 µM) was 0.268, the relative viability (NCI-H1651; first compound 1 µM) was 0.17 and the relative viability (NCI-H1915; first compound 0.01 µM) was 0.373. It also gave a relative viability (NCI-H1915; first compound 0.03162 µM) of 0.375, a relative viability (NCI-H1915; first compound 0.1 µM) of 0.368 and a relative viability (NCI-H1915; first compound 0.3162 µM) of 0.362. It also gave a relative viability (NCI-H1915; first compound 1 µM) of 0.349, a relative viability (NCI-H1993; first compound 0.01 µM) of 0.553 and a relative viability (NCI-H1993; first compound 0.03162 µM) of 0.504. It also gave a relative viability (NCI-H1993; first compound 0.1 µM) of 0.53, a relative viability (NCI-H1993; first compound 0.3162 µM) of 0.428 and a relative viability (NCI-H1993; first compound 1 µM) of 0.502. It also gave a relative viability (NCI-H2023; first compound 0.01 µM) of 0.446, a relative viability (NCI-H2023; first compound 0.03162 µM) of 0.394 and a relative viability (NCI-H2023; first compound 0.1 µM) of 0.255. For the same molecule, the relative viability (NCI-H2023; first compound 0.3162 µM) was 0.171, the relative viability (NCI-H2023; first compound 1 µM) was 0.1 and the relative viability (NCI-H2085; first compound 0.01 µM) was 0.647. For the same molecule, the relative viability (NCI-H2085; first compound 0.03162 µM) was 0.806, the relative viability (NCI-H2085; first compound 0.1 µM) was 0.811 and the relative viability (NCI-H2085; first compound 0.3162 µM) was 0.685. For the same molecule, the relative viability (NCI-H2085; first compound 1 µM) was 0.496, the relative viability (NCI-H2126; first compound 0.01 µM) was 0.513 and the relative viability (NCI-H2126; first compound 0.03162 µM) was 0.593. For the same molecule, the relative viability (NCI-H2126; first compound 0.1 µM) was 0.545, the relative viability (NCI-H2126; first compound 0.3162 µM) was 0.536 and the relative viability (NCI-H2126; first compound 1 µM) was 0.462. For the same molecule, the relative viability (NCI-H2342; first compound 0.01 µM) was 0.597, the relative viability (NCI-H2342; first compound 0.03162 µM) was 0.605 and the relative viability (NCI-H2342; first compound 0.1 µM) was 0.72. For the same molecule, the relative viability (NCI-H2342; first compound 0.3162 µM) was 0.567, the relative viability (NCI-H2342; first compound 1 µM) was 0.56 and the relative viability (NCI-H2347; first compound 0.01 µM) was 0.426. The relative viability (NCI-H2347; first compound 0.03162 µM) was 0.365, the relative viability (NCI-H2347; first compound 0.1 µM) was 0.51 and the relative viability (NCI-H2347; first compound 0.3162 µM) was 0.483. For the same molecule, the relative viability (NCI-H2347; first compound 1 µM) was 0.371, the relative viability (NCI-H358; first compound 0.01 µM) was 0.305 and the relative viability (NCI-H358; first compound 0.03162 µM) was 0.401. It also gave a relative viability (NCI-H358; first compound 0.1 µM) of 0.334, a relative viability (NCI-H358; first compound 0.3162 µM) of 0.242 and a relative viability (NCI-H358; first compound 1 µM) of 0.185. The relative viability (NCI-H650; first compound 0.01 µM) was 0.453, the relative viability (NCI-H650; first compound 0.03162 µM) was 0.46 and the relative viability (NCI-H650; first compound 0.1 µM) was 0.49. The relative viability (NCI-H650; first compound 0.3162 µM) was 0.446, the relative viability (NCI-H650; first compound 1 µM) was 0.538 and the relative viability (NCI-H838; first compound 0.01 µM) was 0.538. The relative viability (NCI-H838; first compound 0.03162 µM) was 0.566, the relative viability (NCI-H838; first compound 0.1 µM) was 0.669 and the relative viability (NCI-H838; first compound 0.3162 µM) was 0.524. The relative viability (NCI-H838; first compound 1 µM) was 0.164, the relative viability (PC-14; first compound 0.01 µM) was 0.652 and the relative viability (PC-14; first compound 0.03162 µM) was 0.611. For the same molecule, the relative viability (PC-14; first compound 0.1 µM) was 0.459, the relative viability (PC-14; first compound 0.3162 µM) was 0.305 and the relative viability (PC-14; first compound 1 µM) was 0.213. The relative viability (SW 1573; first compound 0.01 µM) was 0.374, the relative viability (SW 1573; first compound 0.03162 µM) was 0.384 and the relative viability (SW 1573; first compound 0.1 µM) was 0.346. The relative viability (SW 1573; first compound 0.3162 µM) was 0.297, the relative viability (SW 1573; first compound 1 µM) was 0.164 and the relative viability (UMC-11; first compound 0.01 µM) was 0.372. It also gave a relative viability (UMC-11; first compound 0.03162 µM) of 0.322, a relative viability (UMC-11; first compound 0.1 µM) of 0.238 and a relative viability (UMC-11; first compound 0.3162 µM) of 0.25. It also gave a relative viability (UMC-11; first compound 1 µM) of 0.234.

Reference: the supplement of paper PMC10307832
